In paper PMC4343023, “Selectivity of odorant-binding proteins from the southern house mosquito tested against physiologically relevant ligands” (Frontiers in Physiology, 2015):
Read-outs that look alike come from different tables or passages of the source.

Columns and labels:
Test in all cases: biochemical
Type in all cases: binding
Conditions in all cases: for Int (fluorescence emission): residual NPN fluorescence, normalized to 100 prior to ligand, screen at 2–20 μM ligand
CquiOBP5 = CquiOBP5 (Culex quinquefasciatus, UniProt C7BDZ9)
Chain of CquiOBP5 (C7BDZ9 entry or part of it): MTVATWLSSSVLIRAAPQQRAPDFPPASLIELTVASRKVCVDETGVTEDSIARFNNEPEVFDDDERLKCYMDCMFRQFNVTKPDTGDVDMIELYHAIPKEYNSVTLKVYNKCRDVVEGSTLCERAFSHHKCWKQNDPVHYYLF
Procedure: (§1) Binding affinity (Ban et al., [2002]) was tested with a panel of 34 compounds, including attractants, a mosquito oviposition pheromone, repellents, terpenoids and other putative mosquito attractants or repellents. Unless otherwise specified, they were purchased from Sigma-Aldrich/Fluka/Acros (St. Louis, MO). Repellents: DEET (N,N-diethyl-3-methylbenzamide), PMD (p-mentan-3,8-diol) (Bedoukian Research, Inc.), picaridin (butan-2-yl 2-(2-hydroxyethyl)piperidine-1-carboxylate), IR3535 (ethyl 3-[acetyl(butyl)amino]propanoate) (gifts from Dr. Kamal Chauhan, USDA, ARS, Beltsville), (±)-citronellal, and ethyl 2-phenylacetate. Oviposition attractants: (5R,6S)-6-acetoxy-5-hexadecanolide, MOP (Bedoukian Research, Inc.), skatole, indole, 4-methylphenol, and 4-ethylphenol. Human derived compounds: nonanal, 6-methyl-5-hepten-2-one (sulcatone). Terpenoids and other putative attractants/repellents: linalool, linalool oxide, eucalyptol, camphor, fenchone, thujone, geranyl acetate, eugenol, (Z)-3-hexenyl acetate, 1-octen-3-ol, 1-octyn-3-ol, 3-octanol, 1-hexanol, methylcyclohexanol, methyl salicylate, cyclohexanone, acetophenone, benzaldehyde, 3,5-dimethoxybenzene, 1,2-dimethoxybenzene, and 2-phenylethanol.
(§2) Fluorescence spectra were recorded in a right angle configuration on a spectrofluorimeter (RF-5301, Shimadzu, Kyoto, Japan) at room temperature using a 1 cm light path fluorimeter quartz cuvette. Slit widths of 10 nm were selected for both excitation and emission. N-phenyl-1-naphthylamine (NPN, or 1-NPN) (Ban et al., [2002]) was dissolved in methanol to yield a 1 mM stock solution. The binding affinity for NPN was determined by adding aliquots of NPN into a 10 μg/ml (microgram) protein sample. NPN was excited at 337 nm and emission spectra were recorded at high speed scanning between 350 and 500 nm. All ligands used in competition experiments were dissolved in spectrophotometric grade methanol. Binding data were collected in three independent measurements. Bound ligand was evaluated from fluorescence intensity assuming that the protein was 100% active, with a stoichiometry of 1:1 (protein: ligand) at saturation. The KNPN values were estimated using Prism 5 (GraphPad Software, Inc., La Jolla, CA) by non-linear regression for a unique site of binding. The curves were linearized using Scatchard plots. Dissociation constants of the competitors were calculated according to Campanacci et al. ([2001]) from the corresponding IC50 values in the equation: Kdiss = [IC50]/1+[NPN]/KNPN, where [NPN] is the free concentration of NPN and KNPN is the dissociation constant of the complex protein/NPN.

CquiOBP1 = CquiOBP1 (Culex quinquefasciatus, UniProt Q8T6I2)
Chain of CquiOBP1 (Q8T6I2 entry or part of it): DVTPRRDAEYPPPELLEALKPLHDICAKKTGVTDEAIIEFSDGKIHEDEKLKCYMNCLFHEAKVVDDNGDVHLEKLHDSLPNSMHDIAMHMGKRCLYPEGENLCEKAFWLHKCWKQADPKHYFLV
Procedure: as §1, §2

CquiOBP2 = CquiOBP2 (Culex quinquefasciatus, UniProt C7BDZ6)
Chain of CquiOBP2 (C7BDZ6 entry or part of it): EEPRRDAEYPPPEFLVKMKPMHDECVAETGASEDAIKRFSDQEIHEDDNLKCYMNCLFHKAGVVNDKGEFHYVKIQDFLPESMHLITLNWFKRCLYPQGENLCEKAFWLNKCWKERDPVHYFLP
Procedure: as §1, §2

[1] = CquiOBP5, NPN displacement titration, read-out: IC50
[2] = CquiOBP5, calculated from IC50 of NPN displacement, read-out: Kd
[3] = CquiOBP1, NPN displacement titration, read-out: IC50
[4] = CquiOBP1, calculated from IC50 of NPN displacement, read-out: Kd
[5] = CquiOBP2, NPN displacement titration, read-out: IC50
[6] = CquiOBP2, calculated from IC50 of NPN displacement, read-out: Kd

Row | Compound | IC50 (CquiOBP5; [1]) [µM] | Kd (CquiOBP5; [2]) [µM] | Int (fluorescence emission) (CquiOBP5; CquiOBP5) | IC50 (CquiOBP1; [3]) [µM] | Kd (CquiOBP1; [4]) [µM] | Int (fluorescence emission) (CquiOBP1; CquiOBP1) | IC50 (CquiOBP2; [5]) [µM] | Kd (CquiOBP2; [6]) [µM] | Int (fluorescence emission) (CquiOBP2; CquiOBP2) | IC50 (CquiOBP5) [µM] | Kd (CquiOBP5) [µM] | IC50 (CquiOBP1) [µM] | Kd (CquiOBP1) [µM] | IC50 (CquiOBP2) [µM] | Kd (CquiOBP2) [µM]
1 | COc1ccccc1OC [1,2-Dimethoxybenzene, 1,2-dimethoxybenzene] | > 10 | > 7 | 87 | > 10 | > 6.3 | 88 | > 10 | > 2.5 | 91 |  |  |  |  |  | 
2 | CCCCCCO [1-Hexanol, 1-hexanol] | > 10 | > 7 | 88 | > 10 | > 6.3 | 85 | > 10 | > 2.5 | 89 |  |  |  |  |  | 
3 | C=CC(O)CCCCC (stereo not drawn) [1-Octen-3-ol, 1-octen-3-ol] | 11.6 | 8.1 | 59 | > 10 | > 6.3 | 69 | > 10 | > 2.5 | 93 |  |  |  |  |  | 
4 | C#CC(O)CCCCC (stereo not drawn) [1-Octyn-3-ol, 1-octyn-3-ol] | 12.8 | 8.9 | 62.2 | > 10 | > 6.3 | 66 | > 10 | > 2.5 | 92 |  |  |  |  |  | 
5 | OCCc1ccccc1 [2-Phenylethanol, 2-phenylethanol] | > 10 | > 7 | 95 | > 10 | > 6.3 | 91 | > 10 | > 2.5 | 92 |  |  |  |  |  | 
6 | Cc1cc(C)cc(O)c1 [3,5-Dimethylphenol] | > 10 | > 7 | 93 | > 10 | > 6.3 | 84 | 7.4 | 1.9 | 40 |  |  |  |  |  | 
7 | CCCCCC(O)CC (stereo not drawn) [3-Octanol, 3-octanol] | > 10 | > 7 | 85 | > 10 | > 6.3 | 87 | > 10 | > 2.5 | 78 |  |  |  |  |  | 
8 | CCc1ccc(O)cc1 [4-Ethylphenol, 4-ethylphenol] | > 10 | > 7 | 84 | > 10 | > 6.3 | 85 | > 10 | > 2.5 | 91 |  |  |  |  |  | 
9 | CC1CCC(O)CC1 (stereo not drawn) [4-Methylcyclohexanol] | > 10 | > 7 | 93 | > 10 | > 6.3 | 88 | > 10 | > 2.5 | 88 |  |  |  |  |  | 
10 | Cc1ccc(O)cc1 [4-Methylphenol, 4-methylphenol] | > 10 | > 7 | 90 | > 10 | > 6.3 | 73 | > 10 | > 2.5 | 85 |  |  |  |  |  | 
11 | CC/C=C\CCOC(C)=O [(Z)-3-Hexenyl acetate, (Z)-3-hexenyl acetate] | > 10 | > 7 | 83 | > 10 | > 6.3 | 79 | > 10 | > 2.5 | 93 |  |  |  |  |  | 
12 | CC(=O)c1ccccc1 [Acetophenone, acetophenone] | > 10 | > 7 | 87 | > 10 | > 6.3 | 88 | > 10 | > 2.5 | 92 |  |  |  |  |  | 
13 | O=Cc1ccccc1 [Benzaldehyde, benzaldehyde] |  |  | 93 |  |  | 83 |  |  | 91 | > 10 | > 7 | > 10 | > 6.3 | > 10 | > 2.5
14 | CC12CCC(CC1=O)C2(C)C (stereo not drawn) [Camphor, camphor] | > 10 | > 7 | 89 | > 10 | > 6.3 | 90 | > 10 | > 2.5 | 85 |  |  |  |  |  | 
15 | O=C1CCCCC1 [Cyclohexanone, cyclohexanone] | > 10 | > 7 | 82 | > 10 | > 6.3 | 79 | > 10 | > 2.5 | 86 |  |  |  |  |  | 
16 | CCN(CC)C(=O)c1cccc(C)c1 [DEET, N,N-diethyl-3-methylbenzamide] | > 10 | > 7 | 92 | > 10 | > 6.3 | 82 | > 10 | > 2.5 | 96 |  |  |  |  |  | 
17 | CCOC(=O)Cc1ccccc1 [Ethyl 2-phenylacetate, ethyl 2-phenylacetate] |  |  | 91 |  |  | 92 |  |  | 87 | > 10 | > 7 | > 10 | > 6.3 | > 10 | > 2.5
18 | CC12CCC(CC1)C(C)(C)O2 [Eucalyptol, eucalyptol] | > 10 | > 7 | 73 | > 10 | > 6.3 | 96 | > 10 | > 2.5 | 90 |  |  |  |  |  | 
19 | C=CCc1ccc(O)c(OC)c1 [Eugenol, eugenol] | 10.7 | 7.4 | 57.5 | > 10 | > 6.3 | 72 | > 10 | > 2.5 | 82 |  |  |  |  |  | 
20 | CC12CCC(C1)C(C)(C)C2=O (stereo not drawn) [Fenchone, fenchone] | > 10 | > 7 | 92 | > 10 | > 6.3 | 89 | > 10 | > 2.5 | 87 |  |  |  |  |  | 
21 | CC(=O)OC/C=C(\C)CCC=C(C)C [Geranyl acetate, geranyl acetate] | > 10 | > 7 | 81 | > 10 | > 6.3 | 94 | > 10 | > 2.5 | 90 |  |  |  |  |  | 
22 | CCCCN(CCC(=O)OCC)C(C)=O [IR3535, ethyl 3-[acetyl(butyl)amino]propanoate] | > 10 | > 7 | 67 | > 10 | > 6.3 | 71 | > 10 | > 2.5 | 90 |  |  |  |  |  | 
